Patent EP4803513A1, “SUBSTITUTED QUINAZOLINE COMPOUND, PREPARATION METHOD THEREFOR, PHARMACEUTICAL COMBINATION THEREOF, AND USE THEREOF” (Hongyun Biotech Co., Ltd., priority 2023, dated 2025)

tested on: BRK-BaF3 cells; test: Cell antiproliferative activity assay (CCK-8), BRK-BaF3; assay type: cell-based; conditions: 72 h, CCK-8, 3 days incubation
Description: The activity of compounds against BRK kinase can be evaluated by their inhibition of the growth of the BRK kinase-stably transfected BaF3 cell line (BRK-BaF3) and wild-type BaF3 cells (WT-BaF3). […] The larger the ratio of the half-maximal growth inhibitory concentration (IC50) of a compound between WT-BaF3 and BRK-BaF3 cells, the better the selectivity of the compound.
BRK-BaF3, WT-BaF3, WEHI cell line, and breast cancer cell line T47D were cultured using RPMI 1640 Basal medium or DMEM (Dulbecco's Modified Eagle Medium) (Shanghai Peiyuan Biotechnology, L220KJ), supplemented with 10% FBS (Gibco, REF 10099-141C) and 1% P/S (Shanghai Peiyuan Biotechnology, S110JV), in an incubator (Thermo 3020) at 37°C with 5% CO2. Cell viability was above 95%. Cells were passaged at a 3:1 ratio every 3-4 days. For WT-BaF3 cells, WEHI cells were first cultured, and their culture supernatant was filtered through a 0.22 µm filter. This supernatant was added at 10% to the regular culture medium to supplement IL-3 required for WT-BaF3 cell proliferation, which served as the culture medium for WT-BaF3. For testing, cells were first collected and counted, then prepared into a cell suspension at 100,000 cells/mL and plated at 100 µL per well. Drug concentrations started from 10 µM and were serially diluted 3:1. After incubation for 3 days, 20 µL of CCK-8 detection reagent (Targetmol C005) was added to each well. After incubation for 2-4 hours, OD450 was measured using a microplate reader (Varioskan LUX, Thermo Scientific). After subtracting the blank background, the curve was fitted and the IC50 was calculated using XLfit software.

Structure (SMILES)	IC50 [nM]
Cc1nn(CCO)cc1Nc1ncc2cc(-c3cccnn3)cc(C(C)C)c2n1 [I-115]	20 to 100
Cc1c[nH]c(=O)cc1-c1cc(C(C)C)c2nc(Nc3cn(C4CCN(C)C4)nc3C)ncc2c1 (centres unmarked) [III-38]	≤ 20
COc1nn(C2CCN(C(C)C)CC2)cc1Nc1ncc2cc(-c3cc(=O)[nH]cc3C)cc(C(C)C)c2n1 [III-32]	≤ 20
Cc1nn(CCO)cc1Nc1ncc2cc(-c3cc(F)ncc3F)cc(C(C)C)c2n1 [I-16]	≤ 20
CC(=O)c1cc(-c2cc(C(C)C)c3nc(Nc4cn(CCO)nc4C)ncc3c2)ccn1 [I-18]	≤ 20
Cc1c[nH]c(=O)cc1-c1cc(C(C)C)c2nc(Nc3cn([C@@H](C)C(=O)N(C)C)nc3C)ncc2c1 [III-48]	≤ 20
COCCN(C)CCn1ncc(Nc2ncc3cc(-c4cc(=O)[nH]cc4C)cc(C(C)C)c3n2)c1C [III-55]	≤ 20
COc1nn(C)cc1Nc1ncc2cc(-c3cc(=O)[nH]cc3C)cc(C(C)C)c2n1 [III-6]	20 to 100
Cc1c(Nc2ncc3cc(-c4c(F)ccnc4F)cc(C(C)C)c3n2)cnn1CCO [I-70]	≤ 20
Cc1cccnc1-c1cc(C(C)C)c2nc(Nc3cn(C)nc3C)ncc2c1 [III-119]	≤ 20
Cc1c[nH]c(=O)cc1-c1cc(C(C)C)c2nc(Nc3cn(CCN4CCCC4)nc3C)ncc2c1 [III-64]	≤ 20
CCc1nn(C2CCN(C)CC2)cc1Nc1ncc2cc(-c3cc(=O)[nH]cc3C)cc(C(C)C)c2n1 [III-29]	≤ 20
Cc1nn(CCO)cc1Nc1ncc2cc(-c3cncc(Cl)n3)cc(C(C)C)c2n1 [I-89]	20 to 100
Cc1c[nH]c(=O)cc1-c1cc(C(C)C)c2nc(Nc3cnn(C4CCN(C(C)C)CC4)c3C)ncc2c1 [III-17]	≤ 20
Cc1c[nH]c(=O)cc1-c1cc(C(C)C)c2nc(Nc3cn(C4CCN(C(C)C)CC4)nc3C)ncc2c1 [III-16]	≤ 20
Cc1nn(CCO)cc1Nc1ncc2cc(-c3cncc(Cl)c3Cl)cc(C(C)C)c2n1 [I-38]	≤ 20
Cc1c[nH]c(=O)cc1-c1cc(C(C)C)c2nc(Nc3cnn(CCN4CCOC[C@@H]4C)c3C)ncc2c1 [III-60]	≤ 20
Cc1c[nH]c(=O)cc1-c1cc(C(C)C)c2nc(Nc3c[nH]nc3C)ncc2c1 [III-11]	≤ 20
Cc1c[nH]c(=O)cc1-c1cc(C(C)C)c2nc(Nc3cn(CCN4CCOC[C@H]4C)nc3C)ncc2c1 [III-61]	20 to 100
COC[C@@H](C)n1ncc(Nc2ncc3cc(-c4cc(=O)[nH]cc4C)cc(C(C)C)c3n2)c1C [III-46]	≤ 20
Cc1nn(C)cc1Nc1ncc2cc(-c3cc[nH]c(=O)c3)cc(C(C)C)c2n1 [III-1]	20 to 100
C#CCN(C)C(=O)Cn1cc(Nc2ncc3cc(-c4cc(=O)[nH]cc4C)cc(C(C)C)c3n2)c(C)n1 [III-76]	20 to 100
Cc1c[nH]c(=O)cc1-c1cc(C(C)C)c2nc(Nc3cn(CC(=O)NC4CCC4)nc3C)ncc2c1 [III-72]	20 to 100
Cc1nn(CCO)cc1Nc1ncc2cc(-c3cncc4ccccc34)cc(C(C)C)c2n1 [I-184]	≤ 20

The remaining lines, values ahead:

IC50 [nM]	Structure (SMILES)
≤ 20	Cc1ccc2[nH]ncc2c1-c1cc(C(C)C)c2nc(Nc3cn(C)nc3C)ncc2c1 [III-89]
20 to 100	Cc1c[nH]c(=O)cc1-c1cc(C(C)C)c2nc(Nc3cn(CC(=O)N(C)C(C)C)nc3C)ncc2c1 [III-74]
≤ 20	Cc1nn(C)cc1Nc1ncc2cc(-c3cccnc3C(F)F)cc(C(C)C)c2n1 [III-123]
≤ 20	Cc1nn(CCO)cc1Nc1ncc2cc(-c3nccnc3Cl)cc(C(C)C)c2n1 [I-80]
20 to 100	Cc1c[nH]c(=O)cc1-c1cc(C(C)C)c2nc(Nc3cn(-c4cncnc4)nc3C)ncc2c1 [III-34]
≤ 20	Cc1c[nH]c(=O)cc1-c1cc(C(C)C)c2nc(Nc3cnn(CCO)c3)ncc2c1 [I-174]
20 to 100	Cc1c[nH]c(=O)cc1-c1cc(C(C)C)c2nc(Nc3cn(CC(=O)NCCF)nc3C)ncc2c1 [III-70]
20 to 100	Cc1c(Nc2ncc3cc(-c4cc(F)ccc4F)cc(C(C)C)c3n2)cnn1CCO [I-169]
20 to 100	Cc1c[nH]c(=O)cc1-c1cc(C(C)C)c2nc(Nc3cn([C@@H]4C[C@H]5CC[C@@H](C4)N5C)nc3C)ncc2c1 [III-25]
≤ 20	Cc1c[nH]c(=O)cc1-c1cc(C(C)C)c2nc(Nc3cnn(C4CCCN(C)CC4)c3C)ncc2c1 (centres unmarked) [III-36]
≤ 20	Cc1c[nH]c(=O)cc1-c1cc(C(C)C)c2nc(Nc3cnn(C4CCN(C)CC4)c3C(F)(F)F)ncc2c1 [III-28]
≤ 20	Cc1c[nH]c(=O)cc1-c1cc(C(C)C)c2nc(Nc3cn(C(F)F)nc3C)ncc2c1 [III-7]
≤ 20	[2H]C([2H])([2H])n1ncc(Nc2ncc3cc(-c4cc(=O)[nH]cc4C)cc(C(C)C)c3n2)c1C [III-10]
20 to 100	Cc1nn(CCO)cc1Nc1ncc2cc(-c3c[nH]c4ncccc34)cc(C(C)C)c2n1 [I-186]
≤ 20	Cc1c[nH]c(=O)cc1-c1cc(C(C)C)c2nc(Nc3cn(CCN4CCOC[C@@H]4C)nc3C)ncc2c1 [III-59]
20 to 100	Cc1c[nH]c(=O)cc1-c1cc(C(C)C)c2nc(Nc3cnn([C@@H](C)C(=O)N(C)C)c3C)ncc2c1 [III-49]
≤ 20	CCn1cc(Nc2ncc3cc(-c4cc(=O)[nH]cc4C)cc(C(C)C)c3n2)c(C)n1 [III-12]
≤ 20	CCN(C)CCn1ncc(Nc2ncc3cc(-c4cc(=O)[nH]cc4C)cc(C(C)C)c3n2)c1C [III-52]

IC50 [nM]	Structure (SMILES)
≤ 20	CCN(C)CCn1cc(Nc2ncc3cc(-c4cc(=O)[nH]cc4C)cc(C(C)C)c3n2)c(C)n1 [III-51]
20 to 100	Cc1c[nH]c(=O)cc1-c1cc(C(C)C)c2nc(Nc3cn(C4CCN(C5COC5)CC4)nc3C)ncc2c1 [III-18]
20 to 100	Cc1c(Nc2ncc3cc(-c4cnccc4C#N)cc(C(C)C)c3n2)cnn1CCO [I-63]
≤ 20	Cc1c[nH]c(=O)cc1-c1cc(C(C)C)c2nc(Nc3cnn(CCN4CCCC4)c3C)ncc2c1 [III-65]
≤ 20	Cc1ccc(C#N)cc1-c1cc(C(C)C)c2nc(Nc3cn(C4CCN(C)CC4)nc3C)ncc2c1 [III-131]
≤ 20	COCCn1ncc(Nc2ncc3cc(-c4cc(=O)[nH]cc4C)cc(C(C)C)c3n2)c1C [III-43]
20 to 100	Cc1c[nH]c(=O)cc1-c1cc(C(C)C)c2nc(Nc3cn(CC(=O)NC4CC4)nc3C)ncc2c1 [III-73]
≤ 20	Cc1c[nH]c(=O)cc1-c1cc(C(C)C)c2nc(Nc3cnn(CCN(C)CC(C)(C)O)c3C)ncc2c1 [III-57]
≤ 20	Cc1ccc(F)cc1-c1cc(C(C)C)c2nc(Nc3cn(CCO)nc3C)ncc2c1 [I-161]
≤ 20	Cc1nn(CCO)cc1Nc1ncc2cc(-c3cc(F)cc(F)c3)cc(C(C)C)c2n1 [I-158]
≤ 20	Cc1c[nH]c(=O)cc1-c1cc(C(C)C)c2nc(Nc3cnn(C)c3C)ncc2c1 [III-3]
≤ 20	COCCn1cc(Nc2ncc3cc(-c4cc(=O)[nH]cc4C)cc(C(C)C)c3n2)c(C)n1 [III-42]
≤ 20	COCCN(C)CCn1cc(Nc2ncc3cc(-c4cc(=O)[nH]cc4C)cc(C(C)C)c3n2)c(C)n1 [III-54]
≤ 20	Cc1ccc2[nH]ncc2c1-c1cc(C(C)C)c2nc(Nc3cnn(CCO)c3C)ncc2c1 [I-183]
≤ 20	Cc1ccc(C#N)nc1-c1cc(C(C)C)c2nc(Nc3cn(CCO)nc3C)ncc2c1 [I-5]
≤ 20	Cc1c[nH]c(=O)cc1-c1cc(C(C)C)c2nc(Nc3cn(C4COC4)nc3C)ncc2c1 [III-40]
20 to 100	Cc1c[nH]c(=O)cc1-c1cc(C(C)C)c2nc(Nc3cn(CC(=O)NCC(F)F)nc3C)ncc2c1 [III-71]
